Experimental data published in patent publication EP2345639A1, “Cyclic hydroxylamine derivatives, their preparation and use as antioxidants” (ABIOGEN PHARMA S.p.A., priority 2009, dated 2011).
Like-named read-outs stand apart in the source and are kept apart here.

Assays:
[1] = TEAC method (Trolox Equivalent Antioxidant Capacity Assay); assay type: biochemical; details: ratio of gradient to gradient of Trolox; 650 nm, 37 °C, about 90 minutes
Excerpt: This assay is used to measure the total antioxidant activity of pure substances, biological fluids and plant compounds and is based on the reaction of antioxidants with the cation radical ABTS·^+ (2,2'-azinobis(3-ethylbenzothiazolin-6-sulphonate)). This cation radical is metastable and has to be generated just before the experiment by reacting ABTS with hydrogen peroxide in the presence of HRP. This radical can be reduced, with consequent loss of absorbance, by an antioxidant whose scavenging capacity can be measured spectrophotometrically at 650 nm. The test is carried out at 37 °C and the results are obtained from a comparison with Trolox (a synthetic antioxidant and hydrophilic analogue of vitamin E).
The ABTS solution S1 was prepared as follows: • 20 mg of ABTS were added to 50 mM of citric acid buffer (40 ml) at pH=4.5 and to the resulting solution there was added an aqueous solution of HRP (4.4 mg, 400 µl) and an aqueous solution of H2O2 (10 µl of a 30% solution diluted with 16.3 ml of water).
For each of the compounds (1)-(11), as synthesized above, there was prepared a 600 µM solution in water, methanol or DMSO according to its solubility, as well as a Trolox solution as reference.
Each solution was diluted to produce 6 solutions each at a concentration between 25 µM and 300 µM. From each of the diluted and divided solutions, there were withdrawn 20 µl to which 200 µl of solution S1 were then added.
The decrease in absorbance of each solution thus obtained was monitored at 650 nm until a stable value was reached (about 90 minutes).
For each set of 6 solutions and for the reference trolox solution, the absorption was given in graph form as a function of the amount of compound (nmol) in the solution. The gradient of the straight line obtained by linear interpolation was determined according to the least squares method. The TEAC value of each compound of the invention is given in the table below and is expressed as the ratio between the gradient of the resulting straight line and the gradient of the reference (trolox) straight line.

[2] = test system: doxorubicin-induced cerebral oxidative stress in mice; experiment: In vivo assay of cerebral oxidative stress induced in mice by doxorubicin (model and oxidized animals); details: for inhibition in vivo at 50 mg/kg / change in vivo at 50 mg/kg: Mus musculus; for inhibition in vivo at 50 mg/kg: read-out: inhibition of the doxorubicin effect; for change in vivo at 50 mg/kg / mean % effect relative to doxorubicin alone, all parameters (Vehicle): oxidized mice; for mean % effect relative to doxorubicin alone, all parameters (Vehicle): computed as a function of the vehicle
Method: The assay was carried out on compounds (1)-(5) and (7)-(11) and on edaravone (E) as comparative compound.
(§1) 10 mice were used for each treatment group. For each compound 50 mg/kg were administered intraperitoneally (IP) for three consecutive days (day 0, 1 and 2); half the animals (5) also received IP 16.7 mg/kg of doxorubicin immediately after the first treatment (day 0). On the day after the last administration (day 3) the animals were killed by neck dislocation and the brains were removed, weighed and frozen in liquid nitrogen.
(§2) For the analyses of oxidative stress, 100 mg/ml of brain homogenate was prepared in HEB^(*) buffer (pH 7.4 EDTA/HEPES^(**)) containing a mixture of enzyme inhibitors (Leupeptin, Pepstatin, Aprotinin, BHA).
(§3) The evaluation parameters were: • BrW/BWi: ratio between final brain weight and initial body weight (day 0); • Prot. Hmg: total proteins in the homogenate (BCA method, i.e. bicinchoninic acid); • Prot. Ox: oxidized proteins in the Hmg by means of a colorimetric method using dinitrophenylhydrazone (DNPH); • GSH: reduced glutathione in the supernatant (sn) of the Hmg, obtained after precipitation with metaphosphoric acid (MPA), by means of a colorimetric method using dithiodinitrobenzene (DTNB); • CAT: catalase in the Hmg by a colorimetric method using potassium dichromate; • SOD: superoxide dismutase by a colorimetric method using SOD Reagent (xanthine, EDTA, nitroblue tetrazole, Na2CO3, BSA, i.e. bovine serum albumin); • GST: glutathione S-transferase in the supernatant by a colorimetric method using chlorodinitrobenzene (CDNB) and GSH; and • GPx: glutathione peroxidase in the supernatant after addition of GSH and t-BuOOH, heating and precipitation with MPA; followed by GSH method with DTNB. The assay was performed on the compounds (1)-(5) and (7)-(11) and on edaravone (E), as comparative compound.
The mean effect (n=5 experiments) of doxorubicin (D), i.e. "oxidized" animal, relative to the vehicle (V), the vehicle representing the healthy animal.
All the parameters, with the exclusion of Brain/BWi and Prot. Hmg, were normalized for total Hmg proteins. The D value standard deviations and the % incidence relative to V are given in italics.
The effect of the tested compounds on the "oxidized" animals was given as % inhibition relative to the percentage change due to doxorubicin alone. The effect of the compounds on the oxidized animals can be expressed both as a function of the values of the vehicle (healthy, vehicle only) and as a function of the value of its own (healthy, compound only): • Vehicle: percentage [(Compound+D)/V]x100/[(V+D)/V]x100 • Its own: percentage [(Compound+D)/Compound]x100/[(V+D)/V]x100
Again in this case, the mean % effect relative to doxorubicin alone could be given for all the parameters simultaneously, as an approximate index of effectiveness on the cerebral oxidative state of the animal.

[3] = test system: healthy animals; experiment: Effect of the compounds on healthy animals (same in vivo assay, cerebral oxidative parameters); parameters: species or system mice
Method: as §1, §2, §3
The mean % effect, on all the parameters simultaneously, of the triple treatment in healthy animal, as mean percentage change relative to the vehicle. This value is useful as an approximate safety index of the oxidative state of the brain, i.e. the capacity of the compounds of the invention not to alter cerebral homeostasis in healthy animals.

[4] = Brain-to-plasma concentration ratio in mice; assay type: in vivo, Female CD-1 mice; details: female, CD-1, mouse, ip, 25 mg/kg intraperitoneal, area under the curve of brain and plasma concentrations 0 to 60 minutes, read-out: B/P ratio
[5] = ip, overall, with respect to the vehicle
[6] = ip, % inhibition relative to change due to doxorubicin alone, vs its own, read-out: Brain/BWi its own
[7] = ip, % inhibition relative to change due to doxorubicin alone, vs its own, read-out: CAT/pr its own
[8] = ip, % inhibition relative to change due to doxorubicin alone, vs its own, read-out: GPX/pr its own
[9] = ip, % inhibition relative to change due to doxorubicin alone, vs its own, read-out: GSH/pr its own
[10] = ip, % inhibition relative to change due to doxorubicin alone, vs its own, read-out: GST/pr its own
[11] = ip, % inhibition relative to change due to doxorubicin alone, vs its own, read-out: Prot. Hmg its own
[12] = ip, % inhibition relative to change due to doxorubicin alone, vs its own, read-out: Prot. Ox/pr its own
[13] = ip, % inhibition relative to change due to doxorubicin alone, vs its own, read-out: SOD/pr its own
[14] = ip, % inhibition relative to change due to doxorubicin alone, vs vehicle, read-out: Brain/BWi vehicle
[15] = ip, % inhibition relative to change due to doxorubicin alone, vs vehicle, read-out: CAT/pr vehicle
[16] = ip, % inhibition relative to change due to doxorubicin alone, vs vehicle, read-out: GPX/pr vehicle
[17] = ip, % inhibition relative to change due to doxorubicin alone, vs vehicle, read-out: GSH/pr vehicle
[18] = ip, % inhibition relative to change due to doxorubicin alone, vs vehicle, read-out: GST/pr vehicle
[19] = ip, % inhibition relative to change due to doxorubicin alone, vs vehicle, read-out: Prot. Hmg vehicle
[20] = ip, % inhibition relative to change due to doxorubicin alone, vs vehicle, read-out: Prot. Ox/pr vehicle
[21] = ip, % inhibition relative to change due to doxorubicin alone, vs vehicle, read-out: SOD/pr vehicle
[22] = 50 mg/kg IP x3 days + doxorubicin, computed as a function of its own (healthy, compound only), read-out: mean % effect relative to doxorubicin alone, all parameters (Its own)
[23] = 50 mg/kg IP x3 days + doxorubicin
[24] = healthy mice, 50 mg/kg IP for three consecutive days, mean over all parameters, D = doxorubicin alone, 50 mg/kg
[25] = healthy mice, 50 mg/kg IP x3 days, percentage change relative to the vehicle
[26] = ip, overall, compared with its own vehicle

Question: Which results are given for `CC1(C)CC(=O)C(C2CCCCN2O)C(=O)C1` (stereo not drawn) [(3), 2-(1-hydroxypiperidin-2-yl)-5,5-dimethylcyclohexane-1,3-dione]?
Answer: TEAC [1]: 1.0; inhibition in vivo at 50 mg/kg [2, 5]: ≥ 50%; change in vivo at 50 mg/kg [2, 6]: 7.2%; change in vivo at 50 mg/kg [2, 7]: -87.1%; change in vivo at 50 mg/kg [2, 8]: -108%; change in vivo at 50 mg/kg [2, 9]: -11.2%; change in vivo at 50 mg/kg [2, 10]: -50.5%; change in vivo at 50 mg/kg [2, 11]: -125%; change in vivo at 50 mg/kg [2, 12]: 195%; change in vivo at 50 mg/kg [2, 13]: 30.8%; change in vivo at 50 mg/kg [2, 14]: -53.6%; change in vivo at 50 mg/kg [2, 15]: -23.5%; change in vivo at 50 mg/kg [2, 16]: -91.9%; change in vivo at 50 mg/kg [2, 17]: -49.6%; change in vivo at 50 mg/kg [2, 18]: -110%; change in vivo at 50 mg/kg [2, 19]: -114%; change in vivo at 50 mg/kg [2, 20]: -45.9%; change in vivo at 50 mg/kg [2, 21]: 86.7%; change in vivo at 50 mg/kg [2, 22]: -76.6%; inhibition of the doxorubicin effect ([2]; overall, compared with its own vehicle): at the level of edaravone; mean % effect relative to doxorubicin alone, all parameters (Vehicle) [2, 23]: -50.3%; Average % variation with respect to the vehicle [3, 24]: did not significantly alter the parameters; Average % variation with respect to the vehicle ([3]; healthy mice, 50 mg/kg IP for three consecutive days, mean over all parameters, D = doxorubicin alone, listed as V+(3), 50 mg/kg): -0.2%; Brain/BWi [3, 25]: 1.4%; CAT/pr [3, 25]: -10.5%; GPX/pr [3, 25]: -1.8%; GSH/pr [3, 25]: 2.0%; GST/pr [3, 25]: 4.1%; Prot. Hmg [3, 25]: 2.5%; Prot. Ox/pr [3, 25]: -8.6%; SOD/pr [3, 25]: -2.8%; Kp [4]: > 0.1

Question: What does the source list for `CC1(C)CC(=O)C(C2COCCN2O)C(=O)C1` (stereo not drawn) [(4), 2-(4-hydroxymorpholin-3-yl)-5,5-dimethylcyclohexane-1,3-dione]?
Answer: TEAC [1]: 1.2; inhibition in vivo at 50 mg/kg [2, 26]: ~85%; inhibition in vivo at 50 mg/kg [2, 5]: ≥ 50%; change in vivo at 50 mg/kg [2, 6]: -26.1%; change in vivo at 50 mg/kg [2, 7]: -102%; change in vivo at 50 mg/kg [2, 8]: -105%; change in vivo at 50 mg/kg [2, 9]: -77.6%; change in vivo at 50 mg/kg [2, 10]: -147%; change in vivo at 50 mg/kg [2, 11]: -106%; change in vivo at 50 mg/kg [2, 12]: 19.2%; change in vivo at 50 mg/kg [2, 13]: -68.5%; change in vivo at 50 mg/kg [2, 14]: -18.8%; change in vivo at 50 mg/kg [2, 15]: -94.7%; change in vivo at 50 mg/kg [2, 16]: -83.8%; change in vivo at 50 mg/kg [2, 17]: -34.4%; change in vivo at 50 mg/kg [2, 18]: -120%; change in vivo at 50 mg/kg [2, 19]: -80.7%; change in vivo at 50 mg/kg [2, 20]: -4.1%; change in vivo at 50 mg/kg [2, 21]: -28.7%; change in vivo at 50 mg/kg [2, 22]: -84.1%; mean % effect relative to doxorubicin alone, all parameters (Vehicle) [2, 23]: -58.1%; Average % variation with respect to the vehicle [3, 24]: did not significantly alter the parameters; Average % variation with respect to the vehicle ([3]; healthy mice, 50 mg/kg IP for three consecutive days, mean over all parameters, D = doxorubicin alone, listed as V+(4), 50 mg/kg): -2.1%; Prot. Hmg [3, 25]: 1.9%; Brain/BWi ([3]; mouse, in vivo, ip, 50 mg/kg): -0.1%; CAT/pr ([3]; mouse, in vivo, ip, 50 mg/kg): -0.7%; GPX/pr ([3]; mouse, in vivo, ip, 50 mg/kg): -2.0%; GSH/pr ([3]; mouse, in vivo, ip, 50 mg/kg): -4.0%; GST/pr ([3]; mouse, in vivo, ip, 50 mg/kg): -5.2%; Prot. Ox/pr ([3]; mouse, in vivo, ip, 50 mg/kg): -3.0%; SOD/pr ([3]; mouse, in vivo, ip, 50 mg/kg): -5.8%; Kp [4]: > 0.1

Question: What does the source list for `O=C1c2ccccc2C(=O)C1C1COCCN1O` (stereo not drawn) [(8), 2-(4-hydroxymorpholin-3-yl)-2H-indene-1,3-dione]?
Answer: TEAC [1]: 1.5; inhibition in vivo at 50 mg/kg [2, 26]: 45 to 50%; change in vivo at 50 mg/kg [2, 6]: -103%; change in vivo at 50 mg/kg [2, 7]: -28.8%; change in vivo at 50 mg/kg [2, 8]: -2%; change in vivo at 50 mg/kg [2, 9]: -139%; change in vivo at 50 mg/kg [2, 10]: -14.3%; change in vivo at 50 mg/kg [2, 11]: -20.5%; change in vivo at 50 mg/kg [2, 12]: -96.5%; change in vivo at 50 mg/kg [2, 13]: -11.9%; change in vivo at 50 mg/kg [2, 14]: 0%; change in vivo at 50 mg/kg [2, 15]: 27.3%; change in vivo at 50 mg/kg [2, 16]: 29.3%; change in vivo at 50 mg/kg [2, 17]: -48%; change in vivo at 50 mg/kg [2, 18]: 68.1%; change in vivo at 50 mg/kg [2, 19]: 49.4%; change in vivo at 50 mg/kg [2, 20]: -65.7%; change in vivo at 50 mg/kg [2, 21]: 11.9%; change in vivo at 50 mg/kg [2, 22]: -45.6%; Average % variation with respect to the vehicle ([3]; mouse, in vivo, ip, 50 mg/kg): -8.0%
